# From US20260070945A1, “MACROCYCLIC IMMUNOMODULATORS” (Bristol-Myers Squibb Company, priority 2022, published 2026)
# *1 amine or outer side, *2 acyl side, *3 side chain or, on linkers, in order; H or OH if unused. Where a SMILES comes first, the peptide text is derived from it. Bridges are numbered along the chain shown (N, C = ends). [ ]: non-standard residue; d: D form. The star is where a group is joined. ξ: configuration not given here. Phe(3-CF3) = N[C@@H](Cc1cccc(C(F)(F)F)c1)C(=O)O; Ala(morpholin-4-yl) = N[C@@H](CN1CCOCC1)C(=O)O; Phe(4-COOH) = N[C@@H](Cc1ccc(C(=O)O)cc1)C(=O)O; Bip = N[C@@H](Cc1ccc(-c2ccccc2)cc1)C(=O)O; NH(CH2)14COOH = O=C(O)CCCCCCCCCCCCCCN*; Phe(3-Me) = Cc1cccc(C[C@H](N)C(=O)O)c1; γGlu = O=C(O)[C@H](CCC(=O)[*:2])N[*:1]; NH(CH2)12COOH = O=C(O)CCCCCCCCCCCCN*; Val(3-OH) = CC(C)(O)[C@H](N)C(=O)O; 4Pal = N[C@@H](Cc1ccncc1)C(=O)O; Cha = N[C@@H](CC1CCCCC1)C(=O)O; Cit = NC(=O)NCCC[C@H](N)C(=O)O; Ile(3ξ) = CCC(C)[C@H](N)C(=O)O; Thr(3ξ) = CC(O)[C@H](N)C(=O)O; 12Ado = NCCCCCCCCCCCC(=O)O; Carboxymethyl = O=C(O)C*; NMeA = CN[C@@H](C)C(=O)O; Orn = NCCC[C@H](N)C(=O)O; Aun = NCCCCCCCCCCC(=O)O; Dab = NCC[C@H](N)C(=O)O; Dap = NC[C@H](N)C(=O)O; AEEA = NCCOCCOCC(=O)O
# Target: T1, PD-1/PD-L1 interaction (PE-labeled human PD-L1-Ig binding to Jurkat cell line over-expressing human PD-1) (Homo sapiens, UniProt Q15116)
# T1 construct: expressed in transfected cells; host or cells: Jurkat
# T1 sequence (Q15116 25-288): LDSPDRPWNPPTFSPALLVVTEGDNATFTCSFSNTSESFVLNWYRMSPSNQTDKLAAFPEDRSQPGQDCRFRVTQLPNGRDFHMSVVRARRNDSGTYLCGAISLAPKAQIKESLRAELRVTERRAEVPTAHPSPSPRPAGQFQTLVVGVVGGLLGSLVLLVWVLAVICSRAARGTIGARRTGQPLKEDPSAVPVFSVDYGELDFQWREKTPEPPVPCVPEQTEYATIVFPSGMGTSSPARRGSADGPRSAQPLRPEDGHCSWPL
# Experiment: Jurkat-PD-1 Cell Binding High-Content Screening Assay (CBA)
# Conditions: Jurkat-hPD-1 cells, PE-labeled PD-L1-Ig 20 nM final; read-out: Jurkat HPD1 PDL1 IC50
# Procedure, shortened: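 Binding of 20 nM (final) PE-tagged PD-L1-Ig to compound-pretreated Jurkat-hPD-1 cells was measured by high-content imaging after 1 h. Pretreatment ran 2 h at 37 °C in DMEM with 10% fetal calf serum.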
row,IC50,Structure (SMILES)
1,34.8 nM,CCC(C)[C@@H]1NC(=O)[C@H](Cc2ccc(-c3ccccc3)cc2)NC(=O)[C@H](C(C)C)NC(=O)[C@H](Cc2c[nH]c3ccccc23)NC(=O)[C@H](CC(=O)O)NC(=O)[C@H](Cc2ccc(OCC(=O)O)cc2)NC(=O)[C@H](C(C)O)NC(=O)CSC[C@@H](C(=O)N[C@@H](C)C(=O)NCCOCCOCC(=O)N[C@@H](CCC(=O)NCCOCCOCC(=O)N[C@@H](CCC(=O)NCCOCCOCC(=O)N[C@@H](CCCN)C(=O)NCCCCCCCCCCCC(=O)O)C(=O)O)C(=O)O)NC(=O)[C@H](C(C)O)NC(=O)[C@H](C(C)C)NC(=O)[C@H](CC2CCCCC2)NC(=O)[C@H](CCN)NC(=O)[C@@H](CC(C)C)NC(=O)[C@H](C)N(C)C1=O (stereo partly drawn) [Example 2010] ({CH2CO}-[Thr(3ξ)]Y(Carboxymethyl)DWV[Bip][Ile(3ξ)][NMeA][dL][Dab][Cha]V[Thr(3ξ)]CA[AEEA][γGlu][AEEA][γGlu][AEEA][Orn][12Ado]-OH; thioether N-14)
2,4.6 nM,CC(=O)NCCCC[C@@H]1NC(=O)[C@H](C(C)(C)O)NC(=O)[C@H](CC2CCCCC2)NC(=O)[C@H](CCN)NC(=O)[C@@H](CC(C)C)NC(=O)[C@H](C)N(C)C(=O)[C@H](CCCNC(N)=O)NC(=O)[C@H](Cc2ccc(-c3ccccc3)cc2)NC(=O)[C@H](Cc2ccc(C(=O)O)cc2)NC(=O)[C@H](Cc2cccc(C(F)(F)F)c2)NC(=O)[C@H](CC(=O)O)NC(=O)[C@H](Cc2ccc(OCC(=O)O)cc2)NC(=O)[C@H](CN2CCOCC2)NC(=O)CSC[C@@H](C(=O)N[C@@H](CCN)C(=O)NCCCCCCCCCCCCC(=O)O)NC1=O [Example 1157] ({CH2CO}-[Ala(morpholin-4-yl)]Y(Carboxymethyl)D[Phe(3-CF3)][Phe(4-COOH)][Bip][Cit][NMeA][dL][Dab][Cha][Val(3-OH)]K(Ac)C[Dab]-{NH(CH2)12COOH}; thioether N-14)
3,9.9 nM,CCC(C)[C@@H]1NC(=O)[C@H](Cc2ccc(-c3ccccc3)cc2)NC(=O)[C@H](CC(C)C)NC(=O)[C@H](Cc2c[nH]c3ccccc23)NC(=O)[C@H](CC(=O)O)NC(=O)[C@H](Cc2ccc(C(=O)O)cc2)NC(=O)[C@H](Cc2ccc(OCC(=O)O)cc2)NC(=O)CSC[C@@H](C(=O)NCCOCCOCC(=O)N[C@@H](CN)C(=O)NCCCCCCCCCCC(=O)O)NC(=O)[C@H](CO)NC(=O)[C@H](C(C)C)NC(=O)[C@H](CC2CCCCC2)NC(=O)[C@H](CCN)NC(=O)[C@@H](CC(C)C)NC(=O)[C@H](C)N(C)C1=O (stereo partly drawn) [Example 2074] ({CH2CO}-Y(Carboxymethyl)[Phe(4-COOH)]DWL[Bip][Ile(3ξ)][NMeA][dL][Dab][Cha]VSC[AEEA][Dap][Aun]-OH; thioether N-14)
4,29.6 nM,CCC(C)[C@@H]1NC(=O)[C@H](Cc2ccc(-c3ccccc3)cc2)NC(=O)[C@H](CC(C)C)NC(=O)[C@H](Cc2c[nH]c3ccccc23)NC(=O)[C@H](CC(=O)O)NC(=O)[C@H](Cc2ccc(OCC(=O)O)cc2)NC(=O)[C@H](Cc2ccc(OCC(=O)O)cc2)NC(=O)CSC[C@@H](C(=O)N[C@@H](CCN)C(=O)NCCOCCOCC(=O)NCCCCCCCCCCC(=O)O)NC(=O)[C@H](CO)NC(=O)[C@H](C(C)C)NC(=O)[C@H](CC(C)C)NC(=O)[C@H](CC(N)=O)NC(=O)[C@@H](CC(C)C)NC(=O)[C@H](C)N(C)C1=O (stereo partly drawn) [Example 2038] ({CH2CO}-Y(Carboxymethyl)Y(Carboxymethyl)DWL[Bip][Ile(3ξ)][NMeA][dL]NLVSC[Dab][AEEA][Aun]-OH; thioether N-14)
5,16.1 nM,Cc1cccc(C[C@@H]2NC(=O)[C@H](CC(=O)O)NC(=O)[C@H](Cc3ccncc3)NC(=O)[C@H](Cc3ccc(OCC(=O)O)cc3)NC(=O)CSC[C@@H](C(=O)N[C@@H](CCCN)C(=O)NCCOCCOCC(=O)NCCCCCCCCCCC(=O)O)NC(=O)[C@H]([C@@H](C)O)NC(=O)[C@H](C(C)C)NC(=O)[C@H](CC3CCCCC3)NC(=O)[C@H](CCN)NC(=O)[C@@H](CC(C)C)NC(=O)[C@H](C)N(C)C(=O)[C@H](Cc3ccc(OCC(=O)O)cc3)NC(=O)[C@H](Cc3ccc(-c4ccccc4)cc3)NC(=O)[C@H](Cc3ccc(OCC(=O)O)cc3)NC2=O)c1 [Example 1361] ({CH2CO}-Y(Carboxymethyl)[4Pal]D[Phe(3-Me)]Y(Carboxymethyl)[Bip]Y(Carboxymethyl)[NMeA][dL][Dab][Cha]VTC[Orn][AEEA][Aun]-OH; thioether N-14)
6,14.1 nM,CC(C)C[C@@H]1NC(=O)[C@H](Cc2c[nH]c3ccccc23)NC(=O)[C@H](CC(=O)O)NC(=O)[C@H](Cc2ccncc2)NC(=O)[C@H](Cc2ccc(OCC(=O)O)cc2)NC(=O)CSC[C@@H](C(=O)N[C@@H](CCN)C(=O)NCCCCCCCCCCC(=O)O)NC(=O)[C@H](CCC(=O)O)NC(=O)[C@H](C(C)C)NC(=O)[C@H](CC2CCCCC2)NC(=O)[C@H](CCN)NC(=O)[C@@H](CC(C)C)NC(=O)[C@H](C)N(C)C(=O)[C@H](C(C)C)NC(=O)[C@H](Cc2ccc(-c3ccccc3)cc2)NC1=O [Example 1330] ({CH2CO}-Y(Carboxymethyl)[4Pal]DWL[Bip]V[NMeA][dL][Dab][Cha]VEC[Dab][Aun]-OH; thioether N-14)

# Same assay, conditions: PE-labeled PD-L1-Ig 20 nM final, Jurkat-hPD-1 cells; read-out: Jurkat HPD1 PDL1 IC50
row,IC50,Structure (SMILES)
1,34.2 nM,Cc1cccc(C[C@@H]2NC(=O)[C@H](CC(=O)O)NC(=O)[C@H](Cc3ccc(OCC(=O)O)cc3)NC(=O)[C@H](C(C)O)NC(=O)CSC[C@@H](C(=O)N[C@@H](CCN)C(=O)NCCCCCCCCCCC(=O)O)NC(=O)[C@H](CO)NC(=O)[C@H](C(C)(C)O)NC(=O)[C@H](CC3CCCCC3)NC(=O)[C@H](CCN)NC(=O)[C@@H](CC(C)C)NC(=O)[C@H](C)N(C)C(=O)[C@H](Cc3ccc(OCC(=O)O)cc3)NC(=O)[C@H](Cc3ccc(-c4ccccc4)cc3)NC(=O)[C@H](Cc3ccc(C(=O)O)cc3)NC2=O)c1 (stereo partly drawn) [Example 2430] ({CH2CO}-[Thr(3ξ)]Y(Carboxymethyl)D[Phe(3-Me)][Phe(4-COOH)][Bip]Y(Carboxymethyl)[NMeA][dL][Dab][Cha][Val(3-OH)]SC[Dab][Aun]-OH; thioether N-14)
2,1.1 nM,CC(=O)NCCCC[C@@H]1NC(=O)[C@H](C(C)(C)O)NC(=O)[C@H](CC2CCCCC2)NC(=O)[C@H](CCN)NC(=O)[C@@H](CC(C)C)NC(=O)[C@H](C)N(C)C(=O)[C@H](CCC(N)=O)NC(=O)[C@H](Cc2ccc(-c3ccccc3)cc2)NC(=O)[C@H](Cc2ccc(C(=O)O)cc2)NC(=O)[C@H](Cc2cccc(C(F)(F)F)c2)NC(=O)[C@H](CC(=O)O)NC(=O)[C@H](Cc2ccc(OCC(=O)O)cc2)NC(=O)[C@H](Cc2ccc(OCC(=O)O)cc2)NC(=O)CSC[C@@H](C(=O)N[C@@H](CCN)C(=O)NCCCCCCCCCCC(=O)O)NC1=O [Example 2564] ({CH2CO}-Y(Carboxymethyl)Y(Carboxymethyl)D[Phe(3-CF3)][Phe(4-COOH)][Bip]Q[NMeA][dL][Dab][Cha][Val(3-OH)]K(Ac)C[Dab][Aun]-OH; thioether N-14)
3,350 nM,Cc1cccc(C[C@@H]2NC(=O)[C@H](CC(=O)O)NC(=O)[C@H](Cc3ccc(C(=O)O)cc3)NC(=O)[C@H](C(C)O)NC(=O)CSC[C@@H](C(=O)N[C@@H](CCN)C(=O)NCCOCCOCC(=O)NCCOCCOCC(=O)NCCOCCOCC(=O)NCCCCCCCCCCCCCCC(=O)O)NC(=O)[C@H](CCC(=O)O)NC(=O)[C@H](C(C)C)NC(=O)[C@H](CC3CCCCC3)NC(=O)[C@H](CCN)NC(=O)[C@@H](CC(C)C)NC(=O)[C@H](C)N(C)C(=O)[C@H](Cc3ccc(C(=O)O)cc3)NC(=O)[C@H](Cc3ccc(-c4ccccc4)cc3)NC(=O)[C@H](Cc3ccc(C(=O)O)cc3)NC2=O)c1 (stereo partly drawn) [Example 2539] ({CH2CO}-[Thr(3ξ)][Phe(4-COOH)]D[Phe(3-Me)][Phe(4-COOH)][Bip][Phe(4-COOH)][NMeA][dL][Dab][Cha]VEC[Dab][AEEA][AEEA][AEEA]-{NH(CH2)14COOH}; thioether N-14)
